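Following 48 hours of exposure in 96-well plates, responses at five concentrations were used to interpolate endpoints linearly. The concentration for full growth arrest is given as TGI.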
What was measured:
Assay in all cases: growth of human tumour cells (NCI), 48 h
[1] = tested on: A549 NSCLC
[2] = tested on: BT-549 breast
[3] = tested on: CAKI-1 renal
[4] = tested on: HCT-15 colon
[5] = tested on: MDA-N
[6] = tested on: RPMI-8226 leukemia
[7] = tested on: SF-295 CNS
[8] = tested on: SK-OV-3 ovarian
[9] = tested on: SN12C renal
[10] = tested on: UACC-257 melanoma
[11] = tested on: UO-31 renal

| SMILES | TGI [1] [µM] | TGI [2] [µM] | TGI [3] [µM] | TGI [4] [µM] | TGI [5] [µM] | TGI [6] [µM] | TGI [7] [µM] | TGI [8] [µM] | TGI [9] [µM] | TGI [10] [µM] | TGI [11] [µM] |
| --- | --- | --- | --- | --- | --- | --- | --- | --- | --- | --- | --- |
| Cc1cn(C2CC(O)C(Cn3nncc3Cn3nc(Br)c(=O)[nH]c3=O)O2)c(=O)[nH]c1=O (stereo not drawn) | > 100 | > 100 | > 100 | > 100 | > 100 | > 100 | > 100 | > 100 | > 100 | > 100 | > 100 |
| O=C1C(c2ccccc2)=C(c2ccccc2)C1(Cl)Cl | 27.4 | 6.99 | 6.15 | 4.51 | 4.51 | 5.53 | 28.7 | 29.2 | 11.5 | 9.36 | 13.5 |
| N=C1C=CC(=C(c2ccc(N)cc2)c2ccc(N)cc2)C=C1 | 32.1 | 7.97 | 58.1 | 53.3 | 30.3 | 18.4 | 21.4 | 36.2 | 7.37 | 18.1 | 29.2 |
| Clc1nc2nc(N3CCNCC3)nc(N3CCCC3)c2[nH]1 | 33.1 | 89.8 | > 100 | 35.3 | 32.1 | 48 | 38.2 | 37.2 | 34.4 | 37.1 | 29.6 |
| Cc1cnc2c(c1)C(=O)N(c1ccc(Oc3ccccc3)cc1)S2(=O)=O | > 100 | > 100 | > 100 | > 100 | > 100 | > 100 | > 100 | > 100 | > 100 | > 100 | > 100 |
| CCN(CC)/N=C\c1c2ccccc2cc2ccccc12 | > 100 | > 100 | > 100 | > 100 | > 100 | 77.1 | > 100 | > 100 | > 100 | 72.4 | > 100 |
| CCC[N+](C)(C)CCCNC(=O)c1c(O)c2ccccc2[nH]c1=O | > 100 | > 100 | > 100 | > 100 | > 100 | > 100 | > 100 | > 100 | > 100 | > 100 | > 100 |
| O=c1oc2ccccc2c(O)c1C(c1ccc(OCc2ccccc2)cc1)c1c(O)c2ccccc2oc1=O | > 100 | 61.8 | 81.2 | > 100 | 59.4 | > 100 | > 100 | > 100 | > 100 | > 100 | 52.5 |

From PubChem BioAssay (NCI)
